# US20050197274A1, “Solid laundry detergent granules with polyanionic ammonium surfactant and non-aqueous binder” (Unilever Home & Personal Care USA, Division of Conopco, Inc., priority 2004, published 2005)
# Assay: Water solubility: appearance and pH of the aqueous mix while acid and polyamine are combined
# Type: physicochemical
# Details: TEPA 2.0 g in water 94.0 g, before LAS acid
# Description: As PAAS began forming, the solution became hazy. Upon further addition of the LAS acid, the hazy solution became a dispersion. Upon standing for hours, the dispersion formed a layer of sediment at the bottom of the beaker. Even a very diluted formulation (such as below 0.1%) was hazy. […] The solution was clear at the all time over the entire pH range, leading to the conclusion that Na-LAS was fully ionized or disassociated. […] Example 1 was repeated, except that fatty acid was used in place of LAS acid.
smiles,measurement,value
"NCCNCCNCCNCCN [TEPA, Tetraethylenepentamine]",Observations (appearance),Clear
